Publication doi:10.1101/2022.04.11.487889v1 (biorxiv, 2022)

Target: T1, recombinant human PRDX6 (peroxiredoxin 6) (Homo sapiens, UniProt P30041)
T1 sequence (P30041 1-224): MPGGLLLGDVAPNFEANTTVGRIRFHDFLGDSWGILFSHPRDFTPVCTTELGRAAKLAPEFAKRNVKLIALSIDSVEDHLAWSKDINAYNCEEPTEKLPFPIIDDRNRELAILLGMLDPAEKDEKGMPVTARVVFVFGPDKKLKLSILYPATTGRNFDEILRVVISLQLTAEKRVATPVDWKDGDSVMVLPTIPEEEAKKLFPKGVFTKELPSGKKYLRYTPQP
Assay: radioactive PLA2 assay, […]-DPPC liposomes, scintillation counting
Type: biochemical

IC50: ~0.5 µM
SMILES: CCN(CC)CCN(Cc1ccc(-c2ccc(C(F)(F)F)cc2)cc1)C(=O)Cn1c(SCc2ccc(F)cc2)nc(=O)c2c1CCC2 [Darapladib]
